The test system of the assay is Plasmodium berghei. The experiment in a line: Luciferase/luciferin-expressing antifolate-resistant parasites were used to infect a culture of HepG2 cells that were pre-incubated with compounds. Infected hepatocytes emit light due to the luciferase reaction. Assay results are presented as the percent inhibition of light emission compared to control. […]. It counts as functional. Conditions: sporozoite; for IC90: read-out: LUCIFERASE INFECTION ASSAY - IC90.

Setting [1] is: read-out: LUCIFERASE INFECTION ASSAY - IC50.

A word on the IC50: it is the point on the concentration scale where inhibition reaches its midpoint. By IC90 is commonly meant the point of the concentration-response curve where the effect stands at 90%.

For `Cc1cc(C)c(O)c(/C=N/NC(=S)NC(C)(C)C)c1`, the IC90 was more than 11.8 µM. The IC50 under setting [1] was more than 11.8 µM.

Turning to `CC1CC1C(=O)Nc1cccc(S(=O)(=O)N(C)c2ccccc2)c1` (configuration not stated), the concentration for an effect of 90% (IC90) was more than 10 µM. For the same molecule, the half-maximal inhibitory concentration (IC50) under setting [1] is more than 10 µM.

In the case of `Nc1cccc(OCc2cccnc2)c1`, the IC90 was more than 10 µM. In addition, the 50% inhibitory concentration (IC50) under setting [1] is more than 10 µM.

For `Cc1c(S(=O)(=O)c2ccc(Cl)cc2)csc1C(=O)NCc1ccco1`, the IC90 is more than 8.34 µM. For the same molecule, under “PBLUC_HILL_SLOPE 1.58, PBLUC_R_SQUARED 0.729, read-out: LUCIFERASE INFECTION ASSAY - IC50”, the IC50 turned out to be 2.88 µM.

Consider `CC1(C)CC2CC(C)(CN2C(=O)CSc2nnc(-c3cc(-c4cccs4)nc4ccccc34)o2)C1` (configuration not stated), for which the IC90 was more than 10 µM. Besides, the 50% inhibitory concentration (IC50) (PBLUC_HILL_SLOPE 1.06, PBLUC_R_SQUARED 0.333, read-out: LUCIFERASE INFECTION ASSAY - IC50) is more than 10 µM.

With `c1cc[n+](Cc2ccc(-c3nc4ccccc4s3)cc2)cc1`, the IC90 amounted to 7.9 µM. Besides, the 50% inhibitory concentration (IC50) (PBLUC_HILL_SLOPE 1.53, PBLUC_R_SQUARED 0.36, read-out: LUCIFERASE INFECTION ASSAY - IC50) came to 1.88 µM.

In the case of `Cc1ccc(C(=O)NCc2ccc(-c3ccc(Cl)cc3)o2)cc1NC(=O)c1ccco1`, the 90% effect concentration (IC90) is more than 10 µM. Also, the IC50 under setting [1] is more than 10 µM.

In the case of `COc1ccc(-c2cc(-c3ccc4ccccc4c3)n(C)c2-c2ccc(F)cc2)cc1`, the IC90 is more than 8.1 µM. The IC50 (FFLUC_HILL_SLOPE 0.642, FFLUC_R_SQUARED 0.523, PBLUC_HILL_SLOPE 1.6, PBLUC_R_SQUARED 0.413, read-out: LUCIFERASE INFECTION ASSAY - IC50) was 2.69 µM.

For the molecule `CC(=O)N(c1nc(/C=C/C(=O)c2ccc(F)c(F)c2)cs1)c1c(C)cccc1C`, the IC90 is more than 10 µM. The IC50 under setting [1] is more than 10 µM.

Turning to `Brc1ccc(-c2csc3ncnc(NCc4ccc(-n5ccnc5)nc4)c23)cc1`, the IC90 was more than 10 µM. For the same molecule, the IC50 (HEPG2TOX_HILL_SLOPE 1.16, HEPG2TOX_R_SQUARED 0.868, read-out: LUCIFERASE INFECTION ASSAY - IC50) was more than 10 µM.

Turning to `CC(=O)Nc1cccc(-c2cn3c(-c4ccc(CO)cc4)cnc3cn2)c1`, the IC90 is more than 9.21 µM. Moreover, the 50% inhibitory concentration (IC50) (PBLUC_HILL_SLOPE 4.55, PBLUC_R_SQUARED 0.47, read-out: LUCIFERASE INFECTION ASSAY - IC50) is 6.15 µM.

As to `O=C(NC(=S)Nc1ccc(F)cc1)c1cnn2c(C(F)(F)F)cc(C(F)(F)F)nc12`, the IC90 was more than 7.31 µM. The IC50 under setting [1] is more than 7.31 µM.

In the case of `O=C(NNC(=O)c1cnn(-c2ccccc2)c1C(F)(F)F)c1ccc2ccccc2n1`, the IC90 amounted to 3.75 µM. Besides, the IC50 (HEPG2TOX_HILL_SLOPE 2.84, HEPG2TOX_R_SQUARED 0.957, PBLUC_HILL_SLOPE 16.4, PBLUC_R_SQUARED 0.688, read-out: LUCIFERASE INFECTION ASSAY - IC50) worked out at 3.28 µM.

For the molecule `C1CCN(Cc2nc(NC3CCN(C4CC4)CC3)c3c4c(sc3n2)CCCC4)CC1`, the concentration for an effect of 90% (IC90) is more than 10 µM. Further, the IC50 under setting [1] was more than 10 µM.

`COc1ccc([N+]2=C3CCCCCN3CC2(O)c2ccc(-c3ccccc3)cc2)cc1` (configuration not stated): the 90% effect concentration (IC90) was more than 10 µM. Besides, the IC50 (HEPG2TOX_HILL_SLOPE 6.91, HEPG2TOX_R_SQUARED 0.498, PBLUC_HILL_SLOPE 1.91, PBLUC_R_SQUARED 0.528, read-out: LUCIFERASE INFECTION ASSAY - IC50) came out at 3.24 µM.

Consider `CN(Cc1cn(-c2ccccc2)nc1-c1ccccc1)C(=O)NCCCc1nc2ccccc2[nH]1`, for which the IC90 is more than 10 µM. Besides, under setting [1], the half-inhibitory concentration (IC50) is more than 10 µM.

As to `COc1cc(-c2cnc3cnc(-c4cccs4)cn23)cc(OC)c1OC`, the IC90 came out at 2.1 µM. Moreover, where the note is “HEPG2TOX_HILL_SLOPE 1.1, HEPG2TOX_R_SQUARED 0.918, PBLUC_HILL_SLOPE 2.83, PBLUC_R_SQUARED 0.515, read-out: LUCIFERASE INFECTION ASSAY - IC50”, the concentration for half-maximal inhibition (IC50) was found to be 0.964 µM.

Regarding `COc1ccc2nc(N(Cc3ccccc3)C(=O)C3Cc4ccccc4C(=O)O3)sc2c1` (configuration not stated), the 90% effect concentration (IC90) was more than 10 µM. Under setting [1], the IC50 was more than 10 µM.

As for `COc1cc(C)c(C(c2ccc(N(C)C)cc2)c2ccc(N(C)C)cc2)cc1C`, the concentration for an effect of 90% (IC90) is 6.45 µM. Also, the half-inhibitory concentration (IC50) (HEPG2TOX_HILL_SLOPE 7.41, HEPG2TOX_R_SQUARED 0.305, PBLUC_HILL_SLOPE 5.23, PBLUC_R_SQUARED 0.705, read-out: LUCIFERASE INFECTION ASSAY - IC50) was 4.24 µM.

With `CCN(CC)c1nc2c3c(nc4c(c3c1C#N)CC(c1ccccc1)O4)NC1(CCCCC1)N2` (configuration not stated), the IC90 is more than 10 µM. In addition, the IC50 (FFLUC_HILL_SLOPE 304, FFLUC_R_SQUARED 0.442, PBLUC_HILL_SLOPE 2.01, PBLUC_R_SQUARED 0.722, read-out: LUCIFERASE INFECTION ASSAY - IC50) turned out to be 6.1 µM.

For `N#C/C(=C\c1cc(Cl)cc(Cl)c1O)c1ccc([N+](=O)[O-])cc1`, the IC90 was determined as 6.14 µM. Besides, the IC50 (PBLUC_HILL_SLOPE 3.19, PBLUC_R_SQUARED 0.599, read-out: LUCIFERASE INFECTION ASSAY - IC50) was 3.08 µM.

Consider `CN(C)c1ccc(-c2cnc3cnc(-c4ccc(N)nc4)cn23)cc1`, for which the IC90 came out at 8.82 µM. Besides, the IC50 (HEPG2TOX_HILL_SLOPE 7.95, HEPG2TOX_R_SQUARED 0.49, PBLUC_HILL_SLOPE 26.9, PBLUC_R_SQUARED 0.584, read-out: LUCIFERASE INFECTION ASSAY - IC50) was determined as 8.12 µM.

Turning to `CCn1c(-c2ccccc2)c(C(=O)Cn2ncc(Cl)c(Cl)c2=O)c2ccccc21`, the IC90 was more than 10 µM. Besides, the IC50 (FFLUC_HILL_SLOPE 22, FFLUC_R_SQUARED 0.674, read-out: LUCIFERASE INFECTION ASSAY - IC50) was more than 10 µM.

For `O=c1nc(Nc2cccc(C(F)(F)F)c2)[nH]nc1Cc1ccccc1`, the IC90 is more than 9.53 µM. Besides, the half-maximal inhibitory concentration (IC50) under setting [1] was found to be 1.23 µM.

For `Cc1c(-c2nc3ccccc3[nH]2)c(NC(=O)C(C)C)n(Cc2ccccc2)c1C`, the IC90 was 5.02 µM. For the same molecule, where the note is “FFLUC_HILL_SLOPE 4.87, FFLUC_R_SQUARED 0.116, PBLUC_HILL_SLOPE 2.35, PBLUC_R_SQUARED 0.356, read-out: LUCIFERASE INFECTION ASSAY - IC50”, the IC50 is 1.97 µM.

With `C=CCNC(=O)NCC(=O)c1cc(C)n(-c2ccc(C(C)C)cc2)c1C`, the IC90 amounted to 3.66 µM. Besides, where the note is “HEPG2TOX_HILL_SLOPE 1.75, HEPG2TOX_R_SQUARED 0.807, PBLUC_HILL_SLOPE 19, PBLUC_R_SQUARED 0.54, read-out: LUCIFERASE INFECTION ASSAY - IC50”, the IC50 was determined as 3.26 µM.

`Cc1cc(C)cc(N(CCC#N)C(=O)CSc2nc3cc(Cl)ccc3c(=O)n2Cc2ccccc2)c1`: the IC90 was more than 10 µM. Further, under setting [1], the IC50 is more than 10 µM.

Turning to `FC(F)(F)/C(=N\C1(C(Cl)(Cl)Cl)Oc2ccccc2O1)NCc1ccco1`, the IC90 is more than 10 µM. The IC50 under setting [1] was more than 10 µM.

As to `O=C(CN1CCN(C(=O)c2ccc(=O)n(Cc3ccccc3)n2)CC1)NC1CC1`, the concentration for an effect of 90% (IC90) is more than 10 µM. In addition, the IC50 under setting [1] is more than 10 µM.

As to `CCCn1c(=O)n(C)c(=O)c2c(SCc3cc(=O)oc4cc(CC)ccc34)nc(C(C)(C)C)nc21`, the IC90 is more than 10 µM. Besides, the IC50 under setting [1] is more than 10 µM.

For `Clc1ccc(SCc2cc(N3CCCC3)nc(-c3ccccn3)n2)cc1`, the IC90 amounted to 2.94 µM. Moreover, under “HEPG2TOX_HILL_SLOPE 2.23, HEPG2TOX_R_SQUARED 0.944, PBLUC_HILL_SLOPE 20.5, PBLUC_R_SQUARED 0.394, read-out: LUCIFERASE INFECTION ASSAY - IC50”, the IC50 was determined as 2.64 µM.

On to `N#C/C(=C\c1sccc1Oc1ccccc1)S(=O)(=O)c1ccc(C(F)(F)F)cn1`, for which the IC90 is more than 7.56 µM. In addition, the half-inhibitory concentration (IC50) (FFLUC_HILL_SLOPE 0.259, FFLUC_R_SQUARED 0.0664, read-out: LUCIFERASE INFECTION ASSAY - IC50) is more than 7.56 µM.

Turning to `COc1cc(C)ccc1Oc1ccc(NC(=O)NC2CCN3CCCCC23)cn1` (configuration not stated), the IC90 is more than 10 µM. Also, the IC50 under setting [1] was more than 10 µM.

As for `COc1ccc(Cl)cc1NC(=O)C(C)NCC(c1ccccc1)c1c[nH]c2ccccc12` (configuration not stated), the IC90 was more than 10 µM. Moreover, the concentration for half-maximal inhibition (IC50) under setting [1] was 6.47 µM.

Take `N#CC(C#N)=NNc1cc(F)c(Br)cc1F`: the IC90 amounted to 4.79 µM. Also, the IC50 (PBLUC_HILL_SLOPE 13.7, PBLUC_R_SQUARED 0.287, read-out: LUCIFERASE INFECTION ASSAY - IC50) was found to be 4.08 µM.

Turning to `N#Cc1cccc(NC(=O)CNc2cc(C(F)(F)F)ccc2N2CCCC2)c1`, the IC90 was more than 10 µM. Also, the half-inhibitory concentration (IC50) under setting [1] is more than 10 µM.

On to `COc1cc(C)c(CN2CCC(c3nc4ccccc4s3)CC2)cc1OC`, for which the IC90 was 5.49 µM. The concentration for half-maximal inhibition (IC50) (HEPG2TOX_HILL_SLOPE 1.28, HEPG2TOX_R_SQUARED 0.688, PBLUC_HILL_SLOPE 2.8, PBLUC_R_SQUARED 0.756, read-out: LUCIFERASE INFECTION ASSAY - IC50) worked out at 2.5 µM.

Turning to `OC(c1cccc(C(F)(F)F)c1)c1nnc(Nc2ccccc2)s1` (configuration not stated), the concentration for an effect of 90% (IC90) is more than 10 µM. In addition, the 50% inhibitory concentration (IC50) (PBLUC_HILL_SLOPE 2.28, PBLUC_R_SQUARED 0.325, read-out: LUCIFERASE INFECTION ASSAY - IC50) stood at 7.1 µM.

With `CCNC(=O)N1CCc2nc(NCc3cccc(Oc4ccccc4)c3)ncc2C1`, the 90% effect concentration (IC90) is 3.94 µM. For the same molecule, the IC50 (HEPG2TOX_HILL_SLOPE 10.3, HEPG2TOX_R_SQUARED 0.577, PBLUC_HILL_SLOPE 136, PBLUC_R_SQUARED 0.208, read-out: LUCIFERASE INFECTION ASSAY - IC50) came out at 3.87 µM.

As for `CC1Sc2ccc(C(=O)Nc3ccnn3Cc3cccc(Cl)c3Cl)cc2NC1=O` (configuration not stated), the IC90 is more than 10 µM. The IC50 under setting [1] is more than 10 µM.

Consider `COc1cc(Nc2cc3c(cn2)nc(NCc2ccccc2)n3C)cc(C(F)(F)F)c1`, for which the IC90 was more than 10 µM. Also, under setting [1], the IC50 is more than 10 µM.

The values above are taken from ChEMBL document CHEMBL4483862, “Open-source discovery of chemical leads for next-generation chemoprotective antimalarials” (2018).
